# Target: PAR4 (Homo sapiens (Human), UniProt Q96RI0)
# Test: FLIPR assay in PAR4-expressing HEK293 cells (PAR4 antagonist activity)
# Assay type: cell-based
# Conditions: H-Ala-Phe(4-F)-Pro-Gly-Trp-Leu-Val-Lys-Asn-Gly-NH2-induced intracellular calcium mobilization, 11-point curves
# Excerpt: The FLIPR assay is an exemplary in vitro assay for measuring the activity of the PAR4 antagonists of the present invention. In this assay, intracellular calcium mobilization is induced in PAR4 expressing cells by a PAR4 agonist and calcium mobilization is monitored. See, e.g., Example A.
# HEK293 cells stably expressing PAR4 were generated by a standard method of transfection of human […] cDNA expression vector or by RAGE technology from Athersys Inc. (Cleveland, Ohio) and selected based on PAR4 protein expression of mRNA expression. […] These cells express endogenous PAR1 and can elicit calcium signal upon stimulation with PAR1 agonist peptide. Cells were grown in Dulbecco's Modified Eagle's Medium (DMEM) (Invitrogen, Carlsbad, Calif.), 10% FBS, 1% PSG, 3 μg/ml puromycin and 25 nM Methotrexate) at 37° C. with 5% CO2.
# FLIPR-based calcium mobilization assay in HEK293 cells was used to measure PAR4 antagonism, agonism, and selectivity against PAR1. […] Counter screens for agonist activity and PAR1 antagonist activity were also performed. Briefly, PAR1/PAR4-expressing HEK293 cells were grown in DMEM (Life Technology, Grand Island, N.Y.) containing 10% heat-inactivated FBS, 1% Penicillin-Streptomycin, 10 μg/mL blasticidin, and 100 μg/mL Zeocin at 37° C. with 5% CO2. Cells were plated overnight prior to the experiment in a black 384-well Purecoat Amine clear bottom plate (Becton Dickinson Biosciences, San Jose, Calif.) at 10,000 cells/well in 30 μL growth medium and incubated in a humidified chamber at 37° C. with 5% CO2 overnight. Prior to compound addition, the cell medium was replaced with 40 μL of 1× calcium and magnesium-containing Hank's Balanced Saline Solution (HBSS) (with 20 mM HEPES) and 1:1000 diluted fluorescent calcium indicator (Codex Biosolutions, Gaithersburg, Md.). After a 30 minute incubation period at 37° C. and a further 30 minute incubation and equilibration period at room temperature, 20 μL test compound (diluted in 1×HBSS buffer) was added at various concentrations at 0.17% dimethyl sulfoxide (DMSO) final concentration. Changes in fluorescence intensity were measured using a Functional Drug Screening System (FDSS, Hamamatsu, Japan) to determine agonist activities. The cells were then incubated for 30 minutes at room temperature followed by addition of 20 μL of agonist peptide for antagonist activity measurement. […] Compound potency was derived from 11-point concentration-response curves.
# As indicated above, the FLIPR assay, an in vitro assay, measures the PAR4 antagonist activity of compounds tested as described in Example A.
# Chain of PAR4 (Q96RI0 18-385): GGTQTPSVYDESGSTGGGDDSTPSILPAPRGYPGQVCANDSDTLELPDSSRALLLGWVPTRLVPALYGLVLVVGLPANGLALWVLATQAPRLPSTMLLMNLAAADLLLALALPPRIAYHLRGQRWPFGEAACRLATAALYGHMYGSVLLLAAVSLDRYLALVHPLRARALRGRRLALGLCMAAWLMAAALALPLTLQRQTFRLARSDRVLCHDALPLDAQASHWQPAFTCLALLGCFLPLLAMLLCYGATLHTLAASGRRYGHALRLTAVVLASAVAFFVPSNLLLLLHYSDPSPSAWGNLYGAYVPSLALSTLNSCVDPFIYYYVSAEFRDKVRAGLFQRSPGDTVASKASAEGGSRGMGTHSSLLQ
row,SMILES,IC50 [nM]
1,"COc1cc(OCC2CCCCN2c2ccc(Cl)cc2)c2cc(-c3cn4nc(OC)sc4n3)oc2c1 (single isomer, unassigned) [Example 56]",920
2,"COc1cc(OCC2CCCN(c3ccc(Cl)cn3)C2)c2cc(-c3cn4nc(OC)sc4n3)oc2c1 (single isomer, unassigned) [Example 65]",1000
3,"COc1cc(OC[C@H]2CCCN2c2ccc(C#N)cc2)c2cc(-c3cn4nc(OC)sc4n3)oc2c1 [Example 1, (R)-4-(2-(((6-methoxy-2-(2-methoxyimidazo[2,1-b][1,3,4]thiadiazol-6-yl)benzofuran-4-yl)oxy)methyl)pyrrolidin-1-yl)benzonitrile]",420
4,"COc1cc(OC[C@H]2CCCN2C2CCOCC2)c2cc(-c3cn4nc(OC)sc4n3)oc2c1 [Example 2, (R)-2-methoxy-6-(6-methoxy-4-((1-(tetrahydro-2H-pyran-4-yl)pyrrolidin-2-yl)methoxy)benzofuran-2-yl)imidazo[2,1-b][1,3,4]thiadiazole]",9400
5,"COc1ccc(N2CCN(C(=O)OC(C)(C)C)CC2COc2cc(OC)cc3oc(-c4cn5nc(C)ccc5n4)cc23)cc1 (stereo not shown) [Example 3, tert-butyl 3-(((6-methoxy-2-(6-methylimidazo[1,2-b]pyridazin-2-yl)benzofuran-4-yl)oxy)methyl)-4-(4-methoxyphenyl)piperazine-1-carboxylate]",1200
6,"COc1ccc(N2CCNCC2COc2cc(OC)cc3oc(-c4cn5nc(C)ccc5n4)cc23)cc1 (stereo not shown) [Example 4, 2-(6-methoxy-4-((1-(4-methoxyphenyl)piperazin-2-yl)methoxy)benzofuran-2-yl)-6-methylimidazo[1,2-b]pyridazine]",460000
7,"COc1ccc(N2CCN(C(=O)c3ccccc3)CC2COc2cc(OC)cc3oc(-c4cn5nc(C)ccc5n4)cc23)cc1 (stereo not shown) [Example 5, (3-(((6-methoxy-2-(6-methylimidazo[1,2-b]pyridazin-2-yl)benzofuran-4-yl)oxy)methyl)-4-(4-methoxyphenyl)piperazin-1-yl)(phenyl)methanone]",24000
8,"COc1ccc(N2CCN(C(=O)C3CC3)CC2COc2cc(OC)cc3oc(-c4cn5nc(C)ccc5n4)cc23)cc1 (stereo not shown) [Example 6, cyclopropyl(3-(((6-methoxy-2-(6-methylimidazo[1,2-b]pyridazin-2-yl)benzofuran-4-yl)oxy)methyl)-4-(4-methoxyphenyl)piperazin-1-yl)methanone]",15000
9,"COc1ccc(N2CCN(CC3CC3)CC2COc2cc(OC)cc3oc(-c4cn5nc(C)ccc5n4)cc23)cc1 (stereo not shown) [Example 7, 2-(4-((4-(cyclopropylmethyl)-1-(4-methoxyphenyl)piperazin-2-yl)methoxy)-6-methoxybenzofuran-2-yl)-6-methylimidazo[1,2-b]pyridazine]",16000
10,"COc1cc(OCC2CCCN(S(=O)(=O)c3ccc(C)cc3)C2)c2cc(-c3cn4nc(OC)sc4n3)oc2c1 (stereo not shown) [Example 8, 2-methoxy-6-(6-methoxy-4-((1-tosylpiperidin-3-yl)methoxy)benzofuran-2-yl)imidazo[2,1-b][1,3,4]thiadiazole]",1400
11,COc1cc(OC[C@H]2CCCN2c2ccc(Cl)cc2)c2cc(-c3cn4nc(OC)sc4n3)oc2c1 [Example 9],950
12,COc1ccc(N2CCC[C@@H]2COc2cc(OC)cc3oc(-c4cn5nc(OC)sc5n4)cc23)cc1 [Example 10],390
13,COc1cc(OC[C@H]2CCCN2c2ccc(F)cc2)c2cc(-c3cn4nc(OC)sc4n3)oc2c1 [Example 11],740
14,COc1cc(OC[C@H]2CCCN2c2ccc3c(c2)OCO3)c2cc(-c3cn4nc(OC)sc4n3)oc2c1 [Example 12],420
15,CCOC(=O)c1ccc(N2CCC[C@@H]2COc2cc(OC)cc3oc(-c4cn5nc(OC)sc5n4)cc23)cc1 [Example 13],550
16,COc1cc(OC[C@H]2CCC(=O)N2c2ccc(F)cc2)c2cc(-c3cn4nc(OC)sc4n3)oc2c1 [Example 14],12000
17,COc1cc(OC[C@@H]2CCCN2c2ccc(Cl)cc2)c2cc(-c3cn4nc(OC)sc4n3)oc2c1 [Example 15],1300
18,COc1cc(OC[C@@H]2CCCN2c2ccc(C#N)cc2)c2cc(-c3cn4nc(OC)sc4n3)oc2c1 [Example 16],500
19,COc1ccc(N2CCC[C@H]2COc2cc(OC)cc3oc(-c4cn5nc(OC)sc5n4)cc23)cc1 [Example 17],290
20,COc1cc(OC[C@@H]2CCCN2c2ccc(F)cc2)c2cc(-c3cn4nc(OC)sc4n3)oc2c1 [Example 18],470
21,COc1cccc(N2CCC[C@H]2COc2cc(OC)cc3oc(-c4cn5nc(OC)sc5n4)cc23)c1 [Example 19],460
22,COc1ccc(N2CCC[C@H]2COc2cc(OC)cc3oc(-c4cn5nc(OC)sc5n4)cc23)nc1 [Example 20],710
23,COc1cc(OC[C@@H]2CCCN2c2ccc3c(c2)OCO3)c2cc(-c3cn4nc(OC)sc4n3)oc2c1 [Example 21],540
24,COc1cc(OC[C@@H]2CCCN2c2ccc(C(F)(F)F)cc2)c2cc(-c3cn4nc(OC)sc4n3)oc2c1 [Example 22],440
25,COc1cc(OC[C@@H]2CCCN2c2ccc(OC(F)(F)F)cc2)c2cc(-c3cn4nc(OC)sc4n3)oc2c1 [Example 23],600

row,SMILES,IC50 [nM]
1,COc1cc(OC[C@@H]2CCCN2c2ccc(C)cc2)c2cc(-c3cn4nc(OC)sc4n3)oc2c1 [Example 24],950
2,COc1cc(OC[C@@H]2CCN(c3ccc(Cl)cc3)C2)c2cc(-c3cn4nc(OC)sc4n3)oc2c1 [Example 25],790
3,COc1ccc(N2CC[C@@H](COc3cc(OC)cc4oc(-c5cn6nc(OC)sc6n5)cc34)C2)cc1 [Example 26],1400
4,COc1cc(OCC2CN(c3ccc(F)cc3)C2)c2cc(-c3cn4nc(OC)sc4n3)oc2c1 [Example 27],2300
5,COc1cc(OC[C@@H]2CCCN(c3ccc(C#N)cc3)C2)c2cc(-c3cn4nc(OC)sc4n3)oc2c1 [Example 28],1800
6,CCOC(=O)c1ccc(N2CCC[C@@H](COc3cc(OC)cc4oc(-c5cn6nc(OC)sc6n5)cc34)C2)cc1 [Example 29],950
7,COc1cc(OC[C@H]2CCCN(c3ccc(C#N)cc3)C2)c2cc(-c3cn4nc(OC)sc4n3)oc2c1 [Example 30],860
8,CCOC(=O)c1ccc(N2CCC[C@H](COc3cc(OC)cc4oc(-c5cn6nc(OC)sc6n5)cc34)C2)cc1 [Example 31],890
9,COc1ccc(N2CCCC(COc3cc(OC)cc4oc(-c5cn6nc(OC)sc6n5)cc34)C2)nc1 (stereo not shown) [Example 32],2800
10,COc1cc(OCC2CCCN(c3ccc(Cl)cc3)C2)c2cc(-c3cn4nc(OC)sc4n3)oc2c1 (stereo not shown) [Example 33],440
11,COc1cc(OC[C@@H]2CCCN(c3ccc(Cl)cc3)C2)c2cc(-c3cn4nc(OC)sc4n3)oc2c1 [Example 34],700
12,COc1cc(OC[C@H]2CCCN(c3ccc(Cl)cc3)C2)c2cc(-c3cn4nc(OC)sc4n3)oc2c1 [Example 35],840
13,COc1ccc(N2CCCC(COc3cc(OC)cc4oc(-c5cn6nc(OC)sc6n5)cc34)C2)cc1 (stereo not shown) [Example 36],750
14,COc1cc(OCC2CCCN(c3ncc(F)cc3F)C2)c2cc(-c3cn4nc(OC)sc4n3)oc2c1 (stereo not shown) [Example 37],560
15,COc1cc(OCC2CCCN(c3ccc4c(c3)OCO4)C2)c2cc(-c3cn4nc(OC)sc4n3)oc2c1 (stereo not shown) [Example 38],540
16,COc1cc(OCC2CCCN(c3ccc(C(F)(F)F)cc3)C2)c2cc(-c3cn4nc(OC)sc4n3)oc2c1 (stereo not shown) [Example 39],510
17,COc1cc(OCC2CCCN(c3ccc(C#N)cc3)C2)c2cc(-c3cn4nc(OC)sc4n3)oc2c1 (stereo not shown) [Example 40],1300
18,CCOC(=O)c1ccc(N2CCCC(COc3cc(OC)cc4oc(-c5cn6nc(OC)sc6n5)cc34)C2)cc1 (stereo not shown) [Example 41],2100
19,COc1ccc(N2CCCC(COc3cc(OC)cc4oc(-c5cn6nc(OC)sc6n5)cc34)C2)c(OC)c1 (stereo not shown) [Example 42],1100
20,COc1cc(OCC2CCCN(c3cc(C#N)ccn3)C2)c2cc(-c3cn4nc(OC)sc4n3)oc2c1 (stereo not shown) [Example 43],480
21,COc1cc(OC[C@@H]2CCCN(c3ccc(C#N)cn3)C2)c2cc(-c3cn4nc(OC)sc4n3)oc2c1 [Example 44],750
22,CCOC(=O)c1ccc(N2CCCCC2COc2cc(OC)cc3oc(-c4cn5nc(OC)sc5n4)cc23)cc1 (stereo not shown) [Example 45],370
23,COc1cc(OCC2CCCCN2c2ccc(C#N)cc2)c2cc(-c3cn4nc(OC)sc4n3)oc2c1 (stereo not shown) [Example 46],240
24,CCOC(=O)c1ccc(N2CCC(COc3cc(OC)cc4oc(-c5cn6nc(OC)sc6n5)cc34)CC2)cc1 [Example 47],1000
